Source: patent US20050282859A1, “Dual acting SNRI-NMDA antagonists for the treatment of genitourinary disorders” (priority 2004, published 2005)
“Also recorded” adds a separate entry of the source. Where two headings read alike, the source gives them in different places.

Key:
[1] = tested on: acetic acid-induced bladder irritation; settings: cat, S-norfluoxetine at 3 and 10 mg/kg; cited from earlier work
[2] = tested on: acetic acid-induced bladder irritation; test: Acute rat dilute acetic acid model (cystometry); format: in vivo; settings: acetic acid infusion compared to vehicle
From the text: The acute models described below provide methods for evaluating active agents in the treatment of overactive bladder. Briefly, the models provide a method for reducing the bladder capacity of test animals by infusing either protamine sulfate and potassium chloride (See, Chuang, Y. C. et al., Urology 61(3): 664-670 (2003)) or dilute acetic acid (See, Thor, K. and Katofiasc., M., 1995, J. Pharmacol. Exptl. Ther., 274:1014-1024; Sasaki, K. et al, J. Urol. 168(3) 1259-1264 (2002)) into the bladder. The infusates cause irritation of the bladder and a reduction in bladder capacity by selectively activating bladder afferent fibers, such as C-fiber afferents. Following irritation of the bladder, an active agent (drug) can be administered and the ability of the active agent to reverse (partially or totally) the reduction in bladder capacity resulting from the irritation, can be determined. Substances which reverse the reduction in bladder capacity can be used in the treatment of overactive bladder. Female rats (250-275 g) were anesthetized with urethane (1.2 g/kg) and a saline-filled jugular catheter (PE-50) was inserted for intravenous drug administration and a heparinized (100 units/ml) saline-filled carotid catheter (PE-50) was inserted for blood pressure monitoring. Via a midline abdominal incision from xyphoid to navel, a PE-50 catheter was inserted into the bladder dome for bladder filling and pressure recording. The abdominal cavity was moistened with saline and closed by covering with a thin plastic sheet in order to maintain access to the bladder for filling cystometry emptying purposes. […] Data for bicifadine were analyzed by non-parametric ANOVA for repeated measures (Friedman Test) with Dunn's Multiple Comparison test for cumulative dose-response studies. […] Additionally, % voiding efficiency was calculated using the following formula: ([…]/(Single Cystometrogram Bladder Capacity))*100 for bicifadine.

[3] = tested on: acetic acid-induced bladder irritation; test: Acute cat dilute acetic acid model (cystometry, EUS-EMG); format: in vivo; settings: for bladder capacity: intravenous, during acetic acid infusion
Method: The ability of bicifadine and milnacipran, exemplary dual acting SNRI-NMDA antagonists, to reverse the reduction in bladder capacity observed following continuous infusion of dilute acetic acid in a cat model was tested. The cat model is a commonly used model for overactive bladder (Thor and Katofiasc, 1995, J. Pharmacol. Exptl. Ther. 274: 1014-24). Female cats (2.2-3 kg B W Harlan) were anesthetized with 4% isoflurane for induction followed by intravenous administration of α-chloralose (68-75 mg/kg). An i.v. catheter was inserted in the radial vein for drug administration. A heparinized (100 units/ml) saline-filled catheter (PE-90) was inserted into the carotid artery to monitor blood pressure. A trachea tube was place to monitor respiration. Via a midline lower abdominal incision, a modified 16 gauge i.v. catheter was inserted into the bladder dome for bladder filling and pressure recording. The abdominal cavity was moistened with saline and closed by covering with a thin plastic sheet in order to maintain access to the bladder for emptying purposes. Fine silver or stainless steel wire electrodes were inserted intraurethrally into the external urethral sphincter (EUS) for electromyography (EMG). Saline was continuously infused at a rate of 0.5-1 ml(s)/min via the bladder catheter for 60 minutes to obtain baseline of lower urinary tract activity (continuous cystometry; CMG). Following the control period, a 0.5% acetic acid (AA) solution in saline was infused into the bladder at the same flow rate to induce bladder irritation. Following 30 minutes of AA infusion, in one example, 1-2 vehicle injections were made at 30 minute intervals to determine vehicle effects, if any. Subsequently, increasing doses of bicifadine (0.1, 0.3, 1, 3 and 10 mg/kg) were administered intravenously at 30-60 minute intervals in order to construct a cumulative dose-response relationship (n=6). At the end of the control saline cystometry period, the vehicle, and 15 minutes following each subsequent treatment, the infusion pump was stopped, the bladder was emptied by fluid withdrawal via the infusion catheter and a single filling cystometrogram was performed at the same flow rate in order to determine changes in bladder capacity caused by the irritation protocol and subsequent drug administration. In a second example, subsequent to AA infusion, a vehicle injection was made to ensure that there were no vehicle effects. 10 mg/kg of milnacipran was then administered intravenously. The external urethral EMG activity, bladder pressure, and volume voided was measured during saline infusion, during AA infusion, and subsequent to milnacipran administration. Data for bicifadine were analyzed by non-parametric ANOVA for repeated measures (Friedman Test) with Dunn's Multiple Comparison test for cumulative dose-response studies. All comparisons were made from the last vehicle measurement. P<0.050 was considered significant.

[4] = i.v. cumulative doses 0.1-10 mg/kg

NCC[C@H](Oc1ccc(C(F)(F)F)cc1)c1ccccc1 [S-norfluoxetine]
bladder capacity [1]: small increases
urethral sphincter electromyographic (EMG) activity [1]: small increases

Cc1ccc(C23CNCC2C3)cc1 (stereo not drawn) [bicifadine]
increase in bladder capacity ([2]; 1-10 mg/kg i.v. cumulative doses): ~100%
effect on bladder capacity ([2]; all doses (1, 3, 10 mg/kg i.v.)): had an effect on the bladder capacity
voiding efficiency ([2]; increasing i.v. doses): not effected; also recorded: basically unaffected
increase in bladder capacity ([3]; 1-10 mg/kg i.v. cumulative doses, acetic acid infusion compared to vehicle): 3 fold
increase in voiding efficiency ([3]; 1-10 mg/kg i.v., acetic acid infusion compared to vehicle): ~10%
increases in sphincter EMG during bladder filling ([3]; i.v. bicifadine, n=6 experiments): seen in two of the six experiments
arterial pressure [3, 4]: No significant decrease; also recorded: No significant changes
heart rate [3, 4]: No significant changes
contraction frequency (bladder overactivity) during continuous cystometry ([3]; i.v., 1-10 mg/kg, acetic acid infusion): reduced bladder overactivity; also recorded: dose dependent decrease from 1-10 mg/kg but this was not significant
bladder capacity [3]: significant increase
sphincter EMG activity during micturition contractions (bladder-sphincter synergy) ([3]; the two experiments with increased sphincter EMG): inhibited during micturition contractions

CNCC[C@H](Oc1cccc2ccccc12)c1cccs1 [duloxetine]
bladder capacity [1]: markedly increases
urethral sphincter electromyographic (EMG) activity [1]: markedly increases

CCN(CC)C(=O)C1(c2ccccc2)CC1CN (stereo not drawn) [milnacipran]
sphincter EMG activity ([3]; 10 mg/kg i.v., acetic acid infusion): unexpected increase
increase in bladder capacity ([3]; 10 mg/kg i.v., acetic acid infusion compared to control): ~2 fold
increase in sphincter EMG activity, Root Mean Square ([3]; 10 mg/kg i.v., during the period following the bladder contraction): 82.5 millivolts
increase in sphincter EMG activity, Root Mean Square ([3]; 10 mg/kg i.v., during the period of bladder filling): 19.4 millivolts
bladder capacity [3]: significant increase

CNCCC(Oc1ccccc1SC)c1ccccc1 (stereo not drawn) [thionisoxetine]
bladder capacity [1]: no effects
urethral sphincter electromyographic (EMG) activity [1]: no effects

COc1ccc(C(CN(C)C)C2(O)CCCCC2)cc1 (stereo not drawn) [venlafaxine]
bladder capacity [1]: markedly increases
urethral sphincter electromyographic (EMG) activity [1]: markedly increases
